Data taken from patent US6756374B2, “Diaminothiazoles having antiproliferative activity” (Hoffmann-La Roche Inc., priority 2001, dated 2004).

Experiments:
human cyclin D1-CDK4 = human cyclin D1-CDK4 (Homo sapiens, UniProt P11802); experiment: FlashPlate kinase assay, cyclin D1-CDK4; assay type: biochemical; details: Rb protein substrate, 1 μM ATP
Experimental: (§1) To determine inhibition of Cdk4, Cdk2 and Cdk1 activity, kinase assays were conducted using FlashPlate™ assays (NEN™-Life Science Products). FlashPlate assays were performed using recombinant human cyclin B-CDK1, human cyclin E-CDK2 or human cyclin D1-CDK4 complexes. GST-cyclinE (GST-cycE), CDK2, GST-cyclinB (GST-cycB), CDK1, GST-CDK4 and cyclin D1 (cycD1) cDNA clones in baculovirus vectors were provided by Dr. W. Harper at the Baylor College of Medicine, Houston, Tex.
(§2) The expression of the 62Kd protein was under the control of an IPTG inducible promoter in an M15 E. coli strain. Cells were lysed by sonication and purification was carried out by binding lysates at pH 8.0 to a Ni-chelated agarose column pretreated with 1 mM imidazole. The resin was then washed several times with incrementally decreasing pH buffers to pH 6.0, and eluted with 500 mM imidazole. Eluted protein was dialysed against 20 mM HEPES pH 7.5, 30% glycerol, 200 mM NaCl, and 1 mM DTT. Purified Rb fusion protein stocks were quantitated for protein concentration, aliquoted, and stored at −70° C.
(§3) For all three kinase assays reported herein, 96-well FlashPlates were coated with Rb protein at 10 μg/ml, using 100 μl per well. Plates were incubated at 4° C. overnight or at room temperature for 3 hours on a shaker. To control for nonspecific phosphorylation, one row of wells was coated with 100 μl/well coating buffer (20 mM HEPES, 0.2 M NaCl). Plates were then washed twice with wash buffer (0.01% Tween 20 in phosphate-buffered saline). Compounds to be tested (“test compounds”) were added to the wells at 5×final concentration. Reactions were initiated by immediate addition of 40 μl reaction mix (25 mM HEPES, 20 mM MgCl2, 0.002% Tween 20, 2 mM DTT, 1 μM ATP, 4 nM ^33P-ATP) and a sufficient amount of enzyme to give counts that were at least 10-fold above background. Plates were incubated at room temperature on a shaker for 30 minutes. Plates were washed four times with the wash buffer, sealed, and counted on the TopCount scintillation counter (Packard Instrument Co., Downers Grove, Ill.]. The percent inhibition of Rb phosphorylation, which is a measure of the inhibition of CDK activity, was determined according to the following formula: [formula]
(§4) where “test compound” refers to the average counts per minute of the test duplicates, “nonspecific” refers to the average counts per minute when no CyclinD/Cdk4, etc., was added, and “total” refers to the average counts per minute when no compound was added.

human cyclin E-CDK2 = human cyclin E-CDK2 (Homo sapiens, UniProt P24941); experiment: FlashPlate kinase assay, cyclin E-CDK2; assay type: biochemical; details: Rb protein substrate, 1 μM ATP
Experimental: as §1, §2, §3, §4

human cyclin B-CDK1 = human cyclin B-CDK1 (Homo sapiens, UniProt P06493); experiment: FlashPlate kinase assay, cyclin B-CDK1; assay type: biochemical; details: Rb protein substrate, 1 μM ATP
Experimental: as §1, §2, §3, §4

HCT116 = experiment: Tetrazolium dye (MTT) proliferation assay; assay type: cell-based; details: Homo sapiens, HCT-116; HCT116 colorectal carcinoma cell line
Experimental: The cell line used was HCT116, a colorectal carcinoma cell line obtained from the American Type Cell Culture Collection (ATCC;
Rockville, Md.). The cells were grown in McCoy's 5A medium supplemented with 10% FCS and L-glutamine.
Cells were plated at the appropriate seeding density to give logarithmic growth over the course of the assay in a 96-well tissue culture plate. Plates were incubated overnight at 37° C. in a humidified incubator with 5% CO2. The next day, test compounds were serially diluted to four times the final concentration in the appropriate medium containing 1.2% DMSO. One-fourth final volume of each dilution was added in duplicate to the plates containing cells. The same volume of 1.2% DMSO in medium was added to a row of “control wells” such that the final concentration of DMSO in each well was 0.3%. Wells to which no cells were added served as the “blank.” Wells to which no inhibitor was added served as “no inhibitor control.” The plates were) returned to the incubator, and at set time points (determined by their growth curves) plates were analyzed as described below.
3-(4,5-dimethylthiazole-2-yl)-2,5-diphenyl-2H-tetrazolium bromide (thiazolyl blue; MTT; Sigma) was added to each well to yield a final concentration of 1 mg/ml. Plates were returned to the incubator for 2.5-3 hours at 37° C. The MTT-containing medium was removed and the resulting formazan metabolite was solubilized in 100% ethanol with shaking for 15 minutes at room temperature. Absorbance readings were taken in a microtiter plate reader (Dynatech and Molecular Devices plate readers were used interchangeably) at a wavelength of 570 nm with a 650 nm reference. Percent inhibition (% INH) is calculated by subtracting the absorbance of the blank well from all wells, then subtracting the ratio of the average absorbance of each test duplicate (SAVE) by the average of the controls (CAVE) from 1.00. The final number is then multiplied by 100 (% INH=(1.00−SAVE/CAVE)×100).

Chain of human cyclin D1-CDK4 (P11802 whole entry): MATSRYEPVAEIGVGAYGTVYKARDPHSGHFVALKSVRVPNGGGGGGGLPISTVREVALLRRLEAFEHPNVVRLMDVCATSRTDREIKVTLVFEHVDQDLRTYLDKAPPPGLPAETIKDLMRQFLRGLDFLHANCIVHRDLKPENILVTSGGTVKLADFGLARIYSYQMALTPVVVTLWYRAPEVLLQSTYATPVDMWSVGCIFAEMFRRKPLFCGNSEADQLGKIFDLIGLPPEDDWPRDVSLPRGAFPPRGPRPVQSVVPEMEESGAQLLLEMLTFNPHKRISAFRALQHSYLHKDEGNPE
Chain of human cyclin D1-CDK4 (P24385 whole entry partner): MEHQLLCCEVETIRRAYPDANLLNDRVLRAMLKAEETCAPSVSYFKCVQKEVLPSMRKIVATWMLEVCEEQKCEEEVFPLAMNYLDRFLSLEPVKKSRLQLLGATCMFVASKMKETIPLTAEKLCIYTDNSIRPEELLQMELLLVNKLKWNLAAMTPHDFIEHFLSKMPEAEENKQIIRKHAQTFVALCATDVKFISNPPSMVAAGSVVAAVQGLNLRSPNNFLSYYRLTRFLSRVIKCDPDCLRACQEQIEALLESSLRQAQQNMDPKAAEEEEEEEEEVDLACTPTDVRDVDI
Chain of human cyclin B-CDK1 (P06493 whole entry): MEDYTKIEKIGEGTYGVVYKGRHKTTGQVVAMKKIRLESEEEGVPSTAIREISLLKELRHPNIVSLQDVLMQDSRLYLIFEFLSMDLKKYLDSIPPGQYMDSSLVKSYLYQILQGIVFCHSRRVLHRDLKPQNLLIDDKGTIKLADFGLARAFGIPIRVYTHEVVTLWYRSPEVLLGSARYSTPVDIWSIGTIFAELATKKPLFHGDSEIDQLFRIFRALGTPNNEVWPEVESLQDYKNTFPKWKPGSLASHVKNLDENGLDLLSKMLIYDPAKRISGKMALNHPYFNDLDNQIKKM
Chain of human cyclin B-CDK1 (P14635 whole entry partner): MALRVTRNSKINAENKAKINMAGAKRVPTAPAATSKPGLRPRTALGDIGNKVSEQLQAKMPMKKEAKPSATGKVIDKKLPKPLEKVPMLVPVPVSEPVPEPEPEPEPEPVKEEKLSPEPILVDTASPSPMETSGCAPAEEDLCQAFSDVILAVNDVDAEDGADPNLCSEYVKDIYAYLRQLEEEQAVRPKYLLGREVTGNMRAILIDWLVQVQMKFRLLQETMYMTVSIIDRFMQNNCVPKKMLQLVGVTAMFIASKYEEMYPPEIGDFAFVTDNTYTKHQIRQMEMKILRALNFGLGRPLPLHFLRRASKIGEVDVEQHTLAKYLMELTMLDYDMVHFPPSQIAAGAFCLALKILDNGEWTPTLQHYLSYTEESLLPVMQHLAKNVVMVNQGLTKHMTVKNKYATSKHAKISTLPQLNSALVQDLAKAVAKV

Row | Compound | IC50 (human cyclin D1-CDK4) | IC50 (human cyclin E-CDK2) | IC50 (human cyclin B-CDK1) | IC50 (HCT116)
1 | CC(C)N1CCN(c2ccc(Nc3nc(N)c(C(=O)c4ccc5c(c4)OCCO5)s3)cc2)CC1 [Example 41, [4-Amino-2-[[4-[4-(1-methylethyl)-1-piperazinyl]phenyl]amino]-5-thiazolyl](2,3-dihydro-1,4-benzodioxin-6-yl)methanone] | 0.015 µM | 3.7 µM | 2.9 µM | 3 µM
2 | CC(C)N1CCN(c2ccc(Nc3nc(N)c(C(=O)c4ccc5c(c4)OCO5)s3)cc2)CC1 [Example 42, [4-Amino-2-[[4-[4-(1-methylethyl)-1-piperazinyl]phenyl]amino]-5-thiazolyl](1,3-benzodioxol-5-yl)methanone] | 0.01 µM | 2.9 µM | 1.9 µM | 1.5 µM
3 | COc1cccc(C(=O)c2sc(Nc3ccc(N4CCN(C(C)C)CC4)cc3)nc2N)c1 [Example 43, [4-Amino-2-[[4-[4-(1-methylethyl)-1-piperazinyl]phenyl]amino]-5-thiazolyl](3-methoxyphenyl)methanone] | 0.021 µM | 3.4 µM | 1.9 µM | 1.3 µM
4 | COc1cc(OC)cc(C(=O)c2sc(Nc3ccc(N4CCN(C(C)C)CC4)cc3)nc2N)c1 [Example 44, [4-Amino-2-[[4-[4-(1-methylethyl)-1-piperazinyl]phenyl]amino]-5-thiazolyl](3,5-dimethoxyphenyl)methanone] | 0.028 µM | 11.9 µM | 1.8 µM | 3.8 µM
5 | CC(=O)Nc1ccc(C(=O)c2sc(Nc3ccc(N4CCN(C(C)C)CC4)cc3)nc2N)cc1 [Example 45] | 0.025 µM | 4.9 µM | 5.6 µM | 2.9 µM
6 | CCN(CC)c1ccc(C(=O)c2sc(Nc3ccc(N4CCN(C(C)C)CC4)cc3)nc2N)cc1 [Example 46, [4-Amino-2-[[4-[4-(1-methylethyl)-1-piperazinyl]phenyl]amino]-5-thiazolyl][4-(diethylamino)phenyl]methanone] | 0.014 µM | 5.2 µM | 3.6 µM | 3.6 µM
7 | CC(=O)N1CCN(c2ccc(Nc3nc(N)c(C(=O)c4ccc5c(c4)OCO5)s3)cc2)CC1 [Example 47, 1-Acetyl-4-[4-[[4-amino-5-[(1,3-benzodioxol-5-yl)carbonyl]-2-thiazolyl]amino]phenyl]piperazine] | 0.043 µM | 0.9 µM | 0.5 µM | 2.8 µM
8 | CCN(CC)c1ccc(C(=O)c2sc(Nc3ccc(N4CCN(C(C)=O)CC4)cc3)nc2N)cc1 [Example 48, 1-Acetyl-4-[4-[[4-amino-5-[4-(diethylamino)benzoyl]-2-thiazolyl]amino]phenyl]piperazine] | 0.01 µM | 7.1 µM | 2.3 µM | 13.3 µM
9 | Nc1nc(Nc2ccc(N3CCN(CCO)CC3)cc2)sc1C(=O)c1ccc2c(c1)OCCO2 [Example 49, [4-Amino-2-[[4-[4-(2-hydroxyethyl)-1-piperazinyl]phenyl]amino]-5-thiazolyl](2,3-dihydro-1,4-benzodioxin-6-yl)methanone] | 0.015 µM | 1.5 µM | 2.1 µM | 5.3 µM
10 | Nc1nc(Nc2ccc(N3CCN(CCO)CC3)cc2)sc1C(=O)c1ccc(N2CCCC2)cc1 [Example 50, [4-Amino-2-[[4-[4-(2-hydroxyethyl)-1-piperazinyl]phenyl]amino]-5-thiazolyl][4-(1-pyrrolidinyl)phenyl]methanone] | 0.03 µM | 2.5 µM | 5.5 µM | 9.3 µM
11 | Nc1nc(Nc2ccc(N3CCN(CCO)CC3)cc2)sc1C(=O)c1cccc(F)c1 [Example 51] | 0.02 µM | 0.5 µM | 0.9 µM | 0.9 µM
12 | Nc1nc(Nc2ccc(N3CCN(CCO)CC3)cc2)sc1C(=O)c1cc(F)cc(F)c1 [Example 52, [4-Amino-2-[[4-[4-(2-hydroxyethyl)-1-piperazinyl]phenyl]amino]-5-thiazolyl](3,5-difluorophenyl)methanone] | 0.028 µM | 0.7 µM | 1.2 µM | 2.3 µM
13 | COc1cccc(C(=O)c2sc(Nc3ccc(N4CCN(CCO)CC4)cc3)nc2N)c1 [Example 53, [4-Amino-2-[[4-[4-(2-hydroxyethyl)-1-piperazinyl]phenyl]amino]-5-thiazolyl](3-methoxyphenyl)methanone] | 0.006 µM | 1.3 µM | 2.3 µM | 2.5 µM
14 | Nc1nc(Nc2ccc(N3CCNCC3)cc2)sc1C(=O)c1cccc(F)c1 [Example 54, [4-Amino-2-[[4-(1-piperazinyl)phenyl]amino]-5-thiazolyl](3-fluorophenyl)methanone] | 0.013 µM | 0.2 µM | 0.3 µM | 0.7 µM
15 | Nc1nc(Nc2ccc(N3CCNCC3)cc2)sc1C(=O)c1ccc(N2CCCC2)cc1 [Example 55, [4-Amino-2-[[4-(1-piperazinyl)phenyl]amino]-5-thiazolyl][4-(1-pyrrolidinyl)phenyl]methanone] | 0.05 µM | 3.2 µM | 4.3 µM | 3.8 µM
16 | COc1ccc(C(=O)c2sc(Nc3ccc(N4CCNCC4)cc3)nc2N)cc1F [Example 56, [4-Amino-2-[[4-(1-piperazinyl)phenyl]amino)-5-thiazolyl](3-fluoro-4-methoxyphenyl)methanone] | 0.014 µM | 0.8 µM | 1 µM | 0.8 µM
17 | CN1CCN(c2ccc(Nc3nc(N)c(C(=O)c4ccc(NCCO)c([N+](=O)[O-])c4)s3)cc2)CC1 [Example 57, [4-Amino-2-[[4-(4-methyl-1-piperazinyl)phenyl]amino]-5-thiazolyl][4-(2-hydroxyethyl)amino-3-nitrophenyl]methanone] | 0.009 µM | 1.9 µM | 0.9 µM | 2.1 µM
18 | CN1CCN(c2ccc(Nc3nc(N)c(C(=O)c4ccc(N5CCCC5)c([N+](=O)[O-])c4)s3)cc2)CC1 [Example 58, [4-Amino-2-[[4-(4-methyl-1-piperazinyl)phenyl]amino]-5-thiazolyl][3-nitro-4-(1-pyrrolidinyl)phenyl]methanone] | 0.019 µM | 2.4 µM | 3.9 µM | 3.1 µM
19 | CN1CCN(c2ccc(Nc3nc(N)c(C(=O)c4ccc(N5CCOCC5)c([N+](=O)[O-])c4)s3)cc2)CC1 [Example 59, [4-Amino-2-[[4-(4-methyl-1-piperazinyl)phenyl]amino]-5-thiazolyl][3-nitro-4-(4-morpholinyl)phenyl]methanone] | 0.024 µM | 4.4 µM | 4.3 µM | 3.9 µM
20 | COCCNc1ccc(C(=O)c2sc(Nc3ccc(N4CCN(C)CC4)cc3)nc2N)cc1[N+](=O)[O-] [Example 60, [4-Amino-2-[[4-(4-methyl-1-piperazinyl)phenyl]amino]-5-thiazolyl][3-nitro-4-[(2-methoxyethyl)amino]phenyl]methanone] | 0.017 µM | 7.9 µM | 5.9 µM | 4.9 µM
